This note sets out measurements from patent US20130337579A1, “Methods for Determining Protein Ligand Binding” (UNIVERSITY OF MARYLAND, COLLEGE PARK, priority 2010, published 2013).

The target of assay [1] is T1, P. aeruginosa Alg44PilZ (His-MBP-Alg44PilZ) (Pseudomonas aeruginosa, UniProt Q9HY69).
T1 construct: His-MBP-Alg44PilZ was varied from 100 μM to 6 nM; made in house; host or cells: E. coli BL21(DE3)
The experiment in a line: biochemical. Type of assay: binding. As to conditions: 20 μM purified protein; 500 nM 14C-cAMP, 4 nM 32P-ATP or 4 nM 32P-cdiGMP. The source says:
DRaCALA exploits the ability of nitrocellulose membranes to preferentially sequester proteins over small molecule ligands. When a mixture of protein and radiolabeled ligand is spotted onto a dry nitrocellulose membrane, protein and bound ligand are immobilized at the site of contact while free ligand is mobilized by capillary action with the liquid phase (FIG. 1A). DRaCALA is a rapid assay, as the capillary action can be completed in less than 5 seconds. […] Because capillary action distributes the unbound ligand throughout the mobile phase, the calculation for the fraction bound (FB) can be corrected for this background (see below for edge effects at the solvent front and annulation of the protein). Therefore, FB is defined by the equation in FIG. 1B, where Iinner is the intensity of signal in the area with protein (inner circle) and Itotal is the total signal of the entire sample (outer circle). The Iinner signal consists of both ligand bound to protein and unbound ligand that has not mobilized beyond the area of the inner circle, which we define as Ibackground. Ibackground can be calculated by subtracting the signal intensity of the Iinner from the total ligand Itotal and adjusting for the relative areas of the inner (Ainner) and outer circles (Atotal) (FIG. 1B).
(§1) Radiolabeled ligands were incubated with each of the proteins and the mixtures were spotted on nitrocellulose. After spreading by capillary action, membranes were dried and quantitated by phosphorimager. […] The specificity of Alg44PilZ binding to cdiGMP was further tested by competition with excess unlabeled nucleotides (400-fold molar excess relative to the Alg44PilZ protein).
Kd can be measured by altering either the protein or ligand concentrations in titration experiments; since DRaCALA detects only the ligand mobility, ligand concentrations can be always held constant. […] Since the assay is completed in less than 5 seconds, DRaCALA can also be used to determine the koff for those protein-ligand complexes with slower off rates. koff was determined for cdiGMP and Alg44PilZ by spotting at the indicated time points after the addition of 1 mM unlabeled cdiGMP to a pre-incubated mixture of Alg44PilZ and ^32P-cdiGMP (FIG. 3C). […] Both edge and annulation effects are explained in FIG. 8. The edge effect is due to evaporation of the solvent during the time of the experiment, and is dependent on the humidity of the local environment around the nitrocellulose support. The evaporation results in a smaller total area (Atotal observed in FIG. 8A) and leads to an increased value in the calculated Ibackground. As a secondary correction for the edge effect, the fraction bound determined for spotted ligand in the absence of protein can be subtracted from all samples in parallel (FIG. 8B).

The next assay concerns the target T2, HisMBP-Alg44PilZ (Pseudomonas aeruginosa, UniProt Q9HY69).
T2 construct: His-MBP-Alg44PilZ was varied from 100 μM to 6 nM; made in house; host or cells: E. coli BL21(DE3)
As to the kind of experiment: DRaCALA competition of cold nucleotides with 32P-cdiGMP binding to HisMBP-Alg44PilZ. Further details: species or system P. aeruginosa. As to conditions: 1 mM cold nucleotide (400-fold molar excess over protein), 4 nM 32P-cdiGMP. Here is the method:
FIG. 2. Detection of specific protein-ligand interactions by DRaCALA. (A) DRaCALA images of interactions between purified proteins (20 μM) incubated with 500 nM ^14C-cAMP, 4 nM ^32P-ATP, or 4 nM ^32P-cdiGMP. Protein-ligand mixtures were spotted on nitrocellulose and allowed to dry prior to imaging using a Fuji FLA7100 phosphorimager. Cognate protein-nucleotide combinations are indicated by arrowheads. MBP was used as a negative control. (B) DRaCALA images of competition assays assessing the ability of 1 mM of the indicated cold nucleotides to compete with binding interactions between 4 nM ^32P-cdiGMP and 2.5 μM HisMBP-Alg44PilZ. (C) Graph of fraction bound for each sample in […] with averages indicated by a horizontal bar. NC indicates no competitor. P values were determined by a Student's t-test for significant differences when compared to the no-competitor (NC) control for three independent experiments. For total intensity of each DRaCALA spot in FIGS. 2A and 2B, see Tables 1 and 2, respectively.
Radiolabeled ligands were incubated with each of the proteins and the mixtures were spotted on nitrocellulose. After spreading by capillary action, membranes were dried and quantitated by phosphorimager. […] Each of the radiolabel signals from MBP mixtures was distributed by capillary action (FIG. 2A). […] The specificity of Alg44PilZ binding to cdiGMP was further tested by competition with excess unlabeled nucleotides (400-fold molar excess relative to the Alg44PilZ protein). Alg44PilZ binding to ^32P-cdiGMP was abolished by cdiGMP, but not by cGMP, GMP, GDP, GTP, ATP, CTP or UTP as was previously described (FIG. 2B). The FB for cdiGMP was 0.31±0.07, which was reversed by competition with unlabeled cdiGMP to the background level of 0.04±0.01 (FIG. 2C).
(§2) Protein or whole cell lysates in 1× cdiGMP binding buffer (20 μl) was mixed with 4 nM of radiolabeled nucleotide and allowed to incubate for 10 minutes at room temperature. Radiolabeled nucleotide was competed away by cold nucleotides in concentrations and for times indicated. Purified proteins were tested in technical replicates. Whole cell lysates in FIG. 4 and FIG. 12 were tested in biological triplicates. Whole cell lysates in FIG. 5 were tested in technical replicates. These mixtures were pipetted (2.5-5 μl) onto dry, untreated nitrocellulose (GE Healthcare) in triplicate and allowed to dry completely before quantification. An FLA7100 Fujifilm Life Science Phosphorimager was used to detect luminescence following a 5-minute exposure of blotted nitrocellulose to phosphorimager film. Data was quantified using Fujifilm Multi Gauge software v3.0.

The target of the next assay is E. coli NtrB (Escherichia coli, UniProt P0AFB5). As to the kind of experiment: DRaCALA binding of radiolabeled nucleotides to purified NtrB. To be noted: 20 μM purified protein; 500 nM 14C-cAMP, 4 nM 32P-ATP or 4 nM 32P-cdiGMP. Here is the method:
as §1, §2

The target in the next assay is T3, E. coli CRP (Escherichia coli, UniProt P0ACJ8).
T3 construct: His; made in house
As to the kind of experiment: DRaCALA binding of radiolabeled nucleotides to purified CRP. As to conditions: 20 μM purified protein; 500 nM 14C-cAMP, 4 nM 32P-ATP or 4 nM 32P-cdiGMP. Here is the method:
as §1, §2

Structures are written as SMILES.

T2 sequence (Q9HY69 16-116): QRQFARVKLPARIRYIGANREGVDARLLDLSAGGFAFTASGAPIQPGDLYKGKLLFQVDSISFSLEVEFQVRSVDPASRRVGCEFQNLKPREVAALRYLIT
Chain of E. coli NtrB (P0AFB5 whole entry): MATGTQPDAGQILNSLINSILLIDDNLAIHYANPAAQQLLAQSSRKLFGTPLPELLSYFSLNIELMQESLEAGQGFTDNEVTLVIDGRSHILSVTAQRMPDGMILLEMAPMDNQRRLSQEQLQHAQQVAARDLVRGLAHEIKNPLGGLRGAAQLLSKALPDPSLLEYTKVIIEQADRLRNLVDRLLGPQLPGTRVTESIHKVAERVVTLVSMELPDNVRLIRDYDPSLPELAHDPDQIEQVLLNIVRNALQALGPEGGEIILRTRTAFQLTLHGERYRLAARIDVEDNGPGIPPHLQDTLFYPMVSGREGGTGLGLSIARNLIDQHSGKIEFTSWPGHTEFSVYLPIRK
T3 sequence (P0ACJ8 whole entry): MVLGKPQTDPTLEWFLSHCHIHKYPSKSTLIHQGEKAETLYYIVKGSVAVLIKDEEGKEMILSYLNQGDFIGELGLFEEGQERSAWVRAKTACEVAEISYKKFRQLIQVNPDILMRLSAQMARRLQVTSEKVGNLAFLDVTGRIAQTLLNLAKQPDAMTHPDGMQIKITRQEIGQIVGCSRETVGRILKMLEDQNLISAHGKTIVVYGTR
T1 sequence (Q9HY69 16-116): as the sequence (Q9HY69 16-116) above

Take `Nc1ncnc2c1ncn2[C@@H]1O[C@H](COP(=O)(O)OP(=O)(O)OP(=O)(O)O)[C@@H](O)[C@H]1O` [ATP]: the “binding to Alg44PilZ (sequestration of radiolabel signal)” value in assay [1] was “not”. Further, the “Alg44PilZ binding to 32P-cdiGMP abolished by unlabeled nucleotide” value (“Alg44PilZ binding” below) on HisMBP-Alg44PilZ is on record as “not”. At E. coli NtrB, the “binding to NtrB (sequestration of radiolabel signal)” value is recorded as “bound”. The “binding to CRP (sequestration of radiolabel signal)” value at E. coli CRP is “did not bind”.

Turning to `Nc1ccn([C@@H]2O[C@H](COP(=O)(O)OP(=O)(O)OP(=O)(O)O)[C@@H](O)[C@H]2O)c(=O)n1` [CTP], the “Alg44PilZ binding” value at HisMBP-Alg44PilZ is on record as “not”.

For `Nc1nc2c(ncn2[C@@H]2O[C@H](COP(=O)(O)OP(=O)(O)O)[C@@H](O)[C@H]2O)c(=O)[nH]1` [GDP], at HisMBP-Alg44PilZ, the “Alg44PilZ binding” value is on record as “not”.

In the case of `Nc1nc2c(ncn2[C@@H]2O[C@H](COP(=O)(O)O)[C@@H](O)[C@H]2O)c(=O)[nH]1` [GMP], at HisMBP-Alg44PilZ, the “Alg44PilZ binding” value was “not”.

Consider `Nc1nc2c(ncn2[C@@H]2O[C@H](COP(=O)(O)OP(=O)(O)OP(=O)(O)O)[C@@H](O)[C@H]2O)c(=O)[nH]1` [GTP], for which, at HisMBP-Alg44PilZ, the “Alg44PilZ binding” value was “not”.

For `O=c1ccn([C@@H]2O[C@H](COP(=O)(O)OP(=O)(O)OP(=O)(O)O)[C@@H](O)[C@H]2O)c(=O)[nH]1` [UTP], the “Alg44PilZ binding” value at HisMBP-Alg44PilZ is given as “not”.

With `Nc1nc2c(ncn2[C@@H]2O[C@@H]3COP(=O)(O)O[C@H]3[C@H]2O)c(=O)[nH]1` [cGMP], the “Alg44PilZ binding” value on HisMBP-Alg44PilZ is reported as “not”.
